Test results as given in the supplement of paper PMC10307832.

Tests used:
Test in all cases: relative viability (nuclei count vs DMSO), 5 days (fraction); higher = more cells survive
Vemurafenib = compound: CCCS(=O)(=O)Nc1ccc(F)c(C(=O)c2c[nH]c3ncc(-c4ccc(Cl)cc4)cc23)c1F [Vemurafenib]
Method in brief: (§1)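 Lung cancer cell lines received five library-drug doses (not always all listed) spaced by √10, pinned on vehicle-anchored 1536-well plates after an overnight stay at 37 °C. Five days later, with no medium change, nuclei were Hoechst-stained, imaged at 4× and counted with MetaXpress. Viability is treated-well nuclei relative to vehicle-well nuclei, as a median across plates. Passing plates had control CV below 25% and at least one doubling.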

OSI-027 = compound: COc1cccc2cc(-c3nc([C@H]4CC[C@H](C(=O)O)CC4)n4ncnc(N)c34)[nH]c12 [OSI-027]
Method in brief: as §1

Alpelisib = compound: Cc1nc(NC(=O)N2CCC[C@H]2C(N)=O)sc1-c1ccnc(C(C)(C)C(F)(F)F)c1 [Alpelisib]
Method in brief: as §1

Vemurafenib + Phenformin = compound: CCCS(=O)(=O)Nc1ccc(F)c(C(=O)c2c[nH]c3ncc(-c4ccc(Cl)cc4)cc23)c1F [Vemurafenib] + N=C(N)NC(=N)NCCc1ccccc1 [Phenformin] (partner 250 µM)
Method in brief: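 Relative viability divides the nuclei count in treated wells by that in vehicle wells. Lung cancer cell lines were seeded in 1536-well plates, dosed by pin tool the next day, and fixed and stained after 5 days in one step with final 0.05% Triton X-100, 1% formaldehyde and 1 ug/ml Hoechst. Dosing was a single drug or a fixed anchor-drug dose plus five library-drug doses (not always all listed) in √10 steps, and values are medians of duplicate plates imaged at 4×.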

| Cell Line | relative viability (Vemurafenib; 0.03162 µM) | relative viability (Vemurafenib; 0.3162 µM) | relative viability (Vemurafenib; 1 µM) | relative viability (OSI-027; 0.01 µM) | relative viability (OSI-027; 0.03162 µM) | relative viability (OSI-027; 0.1 µM) | relative viability (OSI-027; 0.3162 µM) | relative viability (OSI-027; 0.5 µM, anchor plate) | relative viability (OSI-027; 1 µM) | relative viability (Alpelisib; 0.04 µM) | relative viability (Alpelisib; 0.1265 µM) | relative viability (Alpelisib; 0.4 µM) | relative viability (Alpelisib; 1.265 µM) | relative viability (Alpelisib; 2 µM, anchor plate) | relative viability (Alpelisib; 4 µM) | relative viability (Vemurafenib + Phenformin; first compound 0.03162 µM) | relative viability (Vemurafenib + Phenformin; first compound 0.1 µM) | relative viability (Vemurafenib + Phenformin; first compound 0.3162 µM) | relative viability (Vemurafenib + Phenformin; first compound 1 µM) | relative viability (Vemurafenib; 0.1 µM) |
| --- | --- | --- | --- | --- | --- | --- | --- | --- | --- | --- | --- | --- | --- | --- | --- | --- | --- | --- | --- | --- |
| NCI-H358 | 0.865 | 1.12 | 1.11 | 1 | 0.842 | 1.03 | 1.01 | 0.79 | 0.538 | 0.873 | 0.889 | 0.95 | 0.586 | 0.88 | 0.493 | 0.282 | 0.19 | 0.448 | 0.455 |  |
| NCI-H441 | 0.899 | 0.787 | 0.931 | 1.19 | 1.05 | 0.984 | 0.963 | 0.636 | 0.474 | 1.1 | 0.95 | 1.01 | 0.605 | 0.766 | 0.662 | 0.952 | 0.856 | 0.739 | 0.744 | 0.963 |
| NCI-H460 | 0.983 | 0.87 | 0.975 | 1.03 | 0.973 | 1.01 | 0.917 | 0.701 | 0.704 | 0.989 | 1.02 | 1.05 | 0.949 | 0.536 | 0.757 | 0.495 | 0.52 | 0.316 | 0.52 | 1 |
| NCI-H520 | 0.944 | 1.08 | 0.924 | 1.15 | 0.972 | 0.73 | 0.628 | 0.261 | 0.34 | 0.891 | 0.935 | 1.11 | 0.725 | 0.945 | 0.503 | 0.564 | 0.702 | 0.435 | 0.496 | 0.944 |
| NCI-H522 | 0.913 | 0.852 | 0.867 | 1 | 1.03 | 0.819 | 0.767 | 0.745 | 0.77 | 0.939 | 0.903 | 0.923 | 0.807 |  | 0.736 | 0.651 | 0.536 | 0.547 | 0.622 | 0.959 |
| NCI-H596 | 0.842 | 0.83 | 0.828 | 0.971 | 0.927 | 0.889 | 0.959 | 0.704 | 0.723 | 0.94 | 1.01 | 0.968 | 0.52 | 0.478 | 0.567 | 0.871 | 0.748 | 0.725 | 0.56 | 0.914 |
| NCI-H647 | 0.913 | 0.655 | 0.942 | 0.943 | 0.889 | 0.892 | 0.705 | 0.654 | 0.427 | 0.917 | 0.925 | 1.06 | 0.757 | 1.18 | 0.832 | 0.439 | 0.404 | 0.446 | 0.376 | 0.925 |
| NCI-H650 | 0.882 | 0.413 | 0.628 | 0.862 | 0.999 | 0.732 | 0.701 | 0.532 | 0.403 | 0.877 | 0.825 | 0.96 | 0.752 | 1.14 | 0.738 | 0.437 | 0.443 |  | 0.37 | 0.965 |
| NCI-H661 | 0.975 | 1.02 | 0.971 | 0.977 | 0.952 | 0.958 | 0.95 | 0.735 | 0.581 | 0.973 | 1.02 | 1.01 | 0.924 | 0.719 | 0.909 | 0.251 | 0.289 | 0.258 | 0.307 | 0.929 |
| NCI-H727 | 1 | 1.2 | 0.908 | 0.849 | 0.884 | 0.893 | 0.769 | 0.624 | 0.712 | 0.904 | 0.894 | 0.893 | 0.789 | 0.586 | 0.565 | 0.508 |  | 0.718 | 0.559 | 0.802 |
| NCI-H838 | 0.924 |  | 1.03 | 0.93 | 0.898 | 0.782 | 0.607 | 0.404 | 0.408 | 0.863 | 0.921 | 0.933 | 0.706 | 1.03 | 0.689 | 0.506 | 0.581 |  | 0.672 | 0.988 |
| NCI-H1355 | 0.933 | 0.925 | 0.96 | 0.985 | 0.985 | 0.898 | 0.823 | 0.451 | 0.444 | 0.944 | 0.96 | 1 | 0.876 | 0.855 | 0.867 | 0.424 | 0.426 | 0.36 | 0.487 | 0.908 |
| NCI-H1395 | 0.755 |  | 0.949 | 0.914 | 0.898 | 0.814 | 0.795 | 0.69 | 0.7 | 0.97 | 0.758 | 1 | 0.73 | 1.14 | 0.785 | 0.425 | 0.433 |  | 0.495 | 0.951 |
| NCI-H1437 | 0.904 | 0.974 | 1.05 | 1 | 0.921 | 1.01 | 0.914 | 0.881 | 0.565 | 1 | 0.948 | 1.06 | 0.864 | 0.965 | 0.89 | 0.258 | 0.315 | 0.29 | 0.309 | 0.958 |
| NCI-H1563 | 0.989 | 0.967 | 0.988 | 0.979 | 0.955 | 0.953 | 0.854 | 0.769 | 0.75 | 0.942 | 0.971 | 0.948 | 0.768 | 0.966 | 0.84 | 0.632 | 0.705 | 0.66 | 0.672 | 0.905 |
